Experimental data as given in paper PMC12216609, “Inhibitors of eIF1A-ribosome interaction unveil uORF-dependent regulation of translation initiation and antitumor and antiviral effects” (The EMBO Journal, 2025).
“And” between values parts separate entries of the source, which are not always exact repeats. Equal values may be shown once. Read-outs that look alike come from different tables or passages of the source.

Experiments:
eIF1A without CTT = target: T1, eIF1A without CTT (Homo sapiens, UniProt P47813); format: binding; conditions: for fluorescence ratio, eIF1A Δ CTT: background-corrected, relative to DMSO or lowest 1Ai concentration, replicate columns
T1 construct: His-bdSUMO (cleaved yes); made in house; host or cells: E. coli (BL-21)

[1] = test system: IRF7 5'UTR firefly luciferase reporter in HEK293T cells; conditions: for Reference vs IRF7 (Final data, Fig. 1E): 1/Result, relative to DMSO; for LONG (summary - All), normalized to DMSO: Long reporter; for LONG (summary - All), normalized to DMSO / SHORT (summary - All), normalized to DMSO: individual replicates, outliers excluded, DMSO = 1; for SHORT (summary - All), normalized to DMSO: Short reporter; for average ( long vs short ratio): summary - All; for Long 5'UTR reporter luciferase activity, normalized to DMSO (=1), single replicates: left data block (Long), source data of Fig 1C;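 on all read-outs here: luciferase signal corrected by a co-transfected GFP reporter for transfection efficiency, read after overnight compound exposure, with Long and Short reporters differing in 5'UTR length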
Description: For the effect on ribosomal scanning, we used two firefly luciferase reporter genes that differ in their 5'UTR length (Fig. 1C). […] Cells were transfected with these reporters along with a GFP reporter gene used to normalize transfection efficiency. After an overnight 1Ai or DMSO (vehicle control) exposure, luciferase and GFP expression were measured, and normalized activity was determined.
For the reference vs IRF7 5'UTR luciferase reporter assay, HEK239T cells in a 12-well plate were transfected with the previously described IRF7 5'UTR or reference firefly luciferase reported genes (Sehrawat et al, [2019]) (100 ng/well) together with GFP (20 ng/well) that served as an internal control by CaCl2 transfection. After 6 h, half of the growth medium was replaced with a medium containing the different compounds, reaching a final concentration of 20 µM. Twenty-four hours after transfection, transfection efficiency was evaluated using GFP fluorescence intensity (Cytation 5, ex/em: 470/525). Cells were harvested in 50 µL Reported lysis buffer (RLB) and put on a shaker for 10 min. From each well 5 µL were taken in duplicates and tested by luminometer.

[2] = test system: cap-proximal AUG GFP reporter in HEK293T cells; format: cell-based; conditions: GFP WB densitometry; 20 µM overnight; dmso 0.965946;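 further: ratio of upstream to downstream AUG initiation products on GFP Western blot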
NSP1 = NSP1 (Severe acute respiratory syndrome coronavirus 2, UniProt P0DTD1)
eIF1A without NTT = target: T2, eIF1A without NTT (Homo sapiens, UniProt P47813); assay: Fluorescence binding assay with NTT-truncated eIF1A; conditions: for fluorescence ratio, eIF1A Δ NTT: background-corrected, relative to DMSO or lowest 1Ai concentration, replicate columns
T2 construct: His-bdSUMO (cleaved yes); made in house; host or cells: E. coli (BL-21)

[3] = eIF1A Δ CTT, from the titration data, read-out: IC50 (eIF1A Δ CTT titration block)
[4] = summary table, fluorescence binding assay, read-out: IC50 concentration (µM), CTT truncation
[5] = eIF1A Δ NTT, from the titration data, read-out: IC50 (eIF1A Δ NTT titration block)
[6] = summary table, fluorescence binding assay, read-out: IC50 concentration (µM), NTT truncation
[7] = 1Ai conc. 0.5 uM, listed as 5662

T1 sequence (P47813 1-114 limits assumed): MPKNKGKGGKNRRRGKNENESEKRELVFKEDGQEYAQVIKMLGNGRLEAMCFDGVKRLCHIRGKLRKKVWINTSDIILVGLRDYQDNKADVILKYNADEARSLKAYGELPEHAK
T2 sequence (P47813 31-144 limits assumed): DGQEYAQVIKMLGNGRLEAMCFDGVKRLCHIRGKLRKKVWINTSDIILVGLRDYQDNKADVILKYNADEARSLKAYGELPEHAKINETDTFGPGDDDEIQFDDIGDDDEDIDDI

| SMILES | fluorescence ratio, eIF1A Δ CTT (eIF1A without CTT; 1Ai conc. 0.25 uM) | fluorescence ratio, eIF1A Δ CTT (eIF1A without CTT; 1Ai conc. 1 uM) | fluorescence ratio, eIF1A Δ CTT (eIF1A without CTT; 1Ai conc. 2 uM) | fluorescence ratio, eIF1A Δ CTT (eIF1A without CTT; 1Ai conc. 4 uM) | fluorescence ratio, eIF1A Δ CTT (eIF1A without CTT; 1Ai conc. 8 uM) | fluorescence ratio, eIF1A Δ CTT (eIF1A without CTT; 1Ai conc. 16 uM) | fluorescence ratio, eIF1A Δ CTT (eIF1A without CTT; 1Ai conc. 32 uM) | fluorescence ratio, eIF1A Δ CTT (eIF1A without CTT; 1Ai conc. 64 uM) | fluorescence ratio, eIF1A Δ CTT (eIF1A without CTT; 1Ai conc. 256 uM) | IC50 (eIF1A without CTT; [3]) [µM] | IC50 (eIF1A without CTT; [4]) [µM] | Reference vs IRF7 (Final data, Fig. 1E) ([1]; 20 µM) | US/DS ratio, average [2] | GFP reporter ratio nsp1/gfp, avg (NSP1) | GFP reporter ratio nsp1/gfp, rep 1 (NSP1) | gfp signal, mean of duplicate wells (NSP1) | nsp1 signal, mean of duplicate wells (NSP1) | ratio (nsp1/gfp) (NSP1) | fluorescence ratio, eIF1A Δ NTT (eIF1A without NTT; 1Ai conc. 0.25 uM) | fluorescence ratio, eIF1A Δ NTT (eIF1A without NTT; 1Ai conc. 0.5 uM) | other results |
| --- | --- | --- | --- | --- | --- | --- | --- | --- | --- | --- | --- | --- | --- | --- | --- | --- | --- | --- | --- | --- | --- |
| Cc1cc(-n2c(C)cc(-c3csc(N)n3)c2C)no1 [1Ai-6464] | 0.827 and 0.948 | 0.8515 and 1.0065 | 0.8637 and 0.9317 | 0.8683 and 0.9724 | 0.6692 and 0.7821 | 0.7305 and 0.6862 | 0.608 and 0.5594 | 0.4364 and 0.4829 | 0.1547 and 0.1772 | 35.4 | 35.4 | 2.824 | 0.6968 | 0.5623 | 0.5623 | 2104 | 1183 | 0.562 | 0.925 and 0.9309 | 1.072 and 0.9557 | fluorescence ratio, eIF1A Δ CTT (eIF1A without CTT; 1Ai conc. 0.5 uM): 0.8882 and 1.055; LONG (summary - All), normalized to DMSO ([1]; 20 µM): 0.0351 and 0.33 and 0.45 and 0.34; SHORT (summary - All), normalized to DMSO ([1]; 20 µM): 0.16 and 1.35 and 0.67 and 1.06; average ( long vs short ratio) ([1]; 20 µM): 0.354; fluorescence ratio, eIF1A Δ NTT (eIF1A without NTT; 1Ai conc. 1 uM): 1.214 and 0.9982; fluorescence ratio, eIF1A Δ NTT (eIF1A without NTT; 1Ai conc. 2 uM): 1.067 and 1.004; fluorescence ratio, eIF1A Δ NTT (eIF1A without NTT; 1Ai conc. 4 uM): 1.128 and 0.9504; fluorescence ratio, eIF1A Δ NTT (eIF1A without NTT; 1Ai conc. 8 uM): 1.103 and 0.7642; fluorescence ratio, eIF1A Δ NTT (eIF1A without NTT; 1Ai conc. 16 uM): 0.8611 and 0.7181; fluorescence ratio, eIF1A Δ NTT (eIF1A without NTT; 1Ai conc. 32 uM): 0.7861 and 0.6206; fluorescence ratio, eIF1A Δ NTT (eIF1A without NTT; 1Ai conc. 64 uM): 0.6389 and 0.5018; fluorescence ratio, eIF1A Δ NTT (eIF1A without NTT; 1Ai conc. 256 uM): 0.4333 and 0.2642; IC50 (eIF1A without NTT; [5]): 37 µM; IC50 (eIF1A without NTT; [6]): 37 µM |
| CCOc1cc(C(=O)Nc2ccc(Cl)c(-c3nc4ccccc4[nH]3)c2)cc(OCC)c1OCC [1Ai-5677] | 0.9518 and 1.125 | 1.031 and 1.16 | 1.066 and 1.079 | 1.073 and 1.131 | 1.007 and 1.089 | 1.119 and 1.152 | 1.196 and 1.27 | 1.276 and 1.31 | 1.365 and 1.556 | 79.9 | 79.9 | 1.223 | 0.4981 | 0.572 | 0.572 | 1615.5 | 924 | 0.572 | 1 | 1 and 0.9156 | fluorescence ratio, eIF1A Δ CTT (eIF1A without CTT; 1Ai conc. 0.5 uM): 0.9965 and 1.042; LONG (summary - All), normalized to DMSO ([1]; 20 µM): 0.42 and 0.28 and 0.29 and 0.61; SHORT (summary - All), normalized to DMSO ([1]; 20 µM): 0.22 and 0.81 and 0.72 and 0.21; Long 5'UTR reporter luciferase activity, normalized to DMSO (=1), single replicates ([1]; compound at 20 µM): 0.4235 and 0.2817 and 0.2949 and 0.6069; average ( long vs short ratio) ([1]; 20 µM): 0.817; binding to NTT-truncated eIF1A (eIF1A without NTT): significantly decreased; fluorescence ratio, eIF1A Δ NTT (eIF1A without NTT; 1Ai conc. 1 uM): 1.054 and 0.8819; fluorescence ratio, eIF1A Δ NTT (eIF1A without NTT; 1Ai conc. 2 uM): 0.997 and 1.025; fluorescence ratio, eIF1A Δ NTT (eIF1A without NTT; 1Ai conc. 4 uM): 0.8973 and 1.017; fluorescence ratio, eIF1A Δ NTT (eIF1A without NTT; 1Ai conc. 8 uM): 0.994 and 0.865; fluorescence ratio, eIF1A Δ NTT (eIF1A without NTT; 1Ai conc. 16 uM): 1.091 and 0.9072; fluorescence ratio, eIF1A Δ NTT (eIF1A without NTT; 1Ai conc. 32 uM): 1.205 and 0.9494; fluorescence ratio, eIF1A Δ NTT (eIF1A without NTT; 1Ai conc. 64 uM): 1.39 and 0.8945; fluorescence ratio, eIF1A Δ NTT (eIF1A without NTT; 1Ai conc. 256 uM): 1.882 and 1.228; IC50 (eIF1A without NTT; [5]): 109 µM; IC50 (eIF1A without NTT; [6]): 109 µM |
| Cc1ccc(C(=O)c2cc(O)c(O)c([N+](=O)[O-])c2)cc1 [1Ai-5576] | 0.7373 and 0.785 | 0.744 and 0.7009 | 0.6013 and 0.6558 | 0.5053 and 0.5218 | 0.4227 and 0.4252 | 0.332 and 0.3364 | 0.26 and 0.2352 | 0.208 and 0.1745 | 0.1973 and 0.1667 | 5.38 | 5.4 | 1.896 | 0.8188 | 0.4237 | 0.4237 | 2857 | 1210.5 | 0.424 | 0.8023 and 0.892 | 0.7712 and 0.8267 | fluorescence ratio, eIF1A Δ CTT (eIF1A without CTT; 1Ai conc. 0.5 uM): 0.8173 and 0.7741; LONG (summary - All), normalized to DMSO ([1]; 20 µM): 0.11 and 0.20 and 0.17; SHORT (summary - All), normalized to DMSO ([1]; 20 µM): 0.23 and 0.53 and 0.25 and 0.22; Long 5'UTR reporter luciferase activity, normalized to DMSO (=1), single replicates ([1]; compound at 20 µM): 0.1126 and 0.2 and 0.1668 and 0.166; average ( long vs short ratio) ([1]; 20 µM): 0.527; binding to NTT-truncated eIF1A (eIF1A without NTT): significantly decreased; fluorescence ratio, eIF1A Δ NTT (eIF1A without NTT; 1Ai conc. 1 uM): 0.7599 and 0.8722; fluorescence ratio, eIF1A Δ NTT (eIF1A without NTT; 1Ai conc. 2 uM): 0.7825 and 0.8608; fluorescence ratio, eIF1A Δ NTT (eIF1A without NTT; 1Ai conc. 4 uM): 0.6215 and 0.8636; fluorescence ratio, eIF1A Δ NTT (eIF1A without NTT; 1Ai conc. 8 uM): 0.5932 and 0.9091; fluorescence ratio, eIF1A Δ NTT (eIF1A without NTT; 1Ai conc. 16 uM): 0.5932 and 0.7358; fluorescence ratio, eIF1A Δ NTT (eIF1A without NTT; 1Ai conc. 32 uM): 0.5395 and 0.6733; fluorescence ratio, eIF1A Δ NTT (eIF1A without NTT; 1Ai conc. 64 uM): 0.7175 and 0.7159; fluorescence ratio, eIF1A Δ NTT (eIF1A without NTT; 1Ai conc. 256 uM): 0.4605 and 0.6165 |
| CN(C)CC1CCn2cc(c3ccccc32)C2=C(C(=O)NC2=O)c2cn(c3ccccc23)CCO1 (stereo not drawn) [1Ai-5662] | 0.8742 and 0.9398 | 0.8798 and 0.8003 | 0.8074 and 0.8109 | 0.7089 and 0.7163 | 0.4859 and 0.6001 | 0.4269 and 0.4563 | 0.2954 and 0.3164 | 0.164 and 0.1518 | 0.1171 and 0.08567 | 12.4 | 12.4 | 0.936 | 3.065 | 0.4084 | 0.4084 | 442 | 180.5 | 0.408 | 0.839 and 0.8682 and 1 | 1.068 | fluorescence ratio, eIF1A Δ CTT (eIF1A without CTT; [7]): 0.8855 and 0.8821; LONG (summary - All), normalized to DMSO ([1]; 10 µM): 1.11 and 0.84 and 0.46 and 0.50; SHORT (summary - All), normalized to DMSO ([1]; 10 µM): 0.67 and 0.80 and 0.62 and 0.63; average ( long vs short ratio) ([1]; 10 µM): 1.068; fluorescence ratio, eIF1A Δ NTT (eIF1A without NTT; [7]): 0.9101 and 0.8837; fluorescence ratio, eIF1A Δ NTT (eIF1A without NTT; 1Ai conc. 1 uM): 0.9026 and 0.9044 and 1.056; fluorescence ratio, eIF1A Δ NTT (eIF1A without NTT; 1Ai conc. 2 uM): 0.8689 and 0.9922 and 1.016; fluorescence ratio, eIF1A Δ NTT (eIF1A without NTT; 1Ai conc. 4 uM): 0.8614 and 0.9638 and 0.988; fluorescence ratio, eIF1A Δ NTT (eIF1A without NTT; 1Ai conc. 8 uM): 0.8277 and 0.845 and 0.9679; fluorescence ratio, eIF1A Δ NTT (eIF1A without NTT; 1Ai conc. 16 uM): 0.6816 and 0.8424 and 0.9197; fluorescence ratio, eIF1A Δ NTT (eIF1A without NTT; 1Ai conc. 32 uM): 0.5918 and 0.6641 and 0.7952; fluorescence ratio, eIF1A Δ NTT (eIF1A without NTT; 1Ai conc. 64 uM): 0.4307 and 0.4574 and 0.6064; fluorescence ratio, eIF1A Δ NTT (eIF1A without NTT; 1Ai conc. 256 uM): 0.2846 and 0.3101 and 0.4458; IC50 (eIF1A without NTT; [5]): 37.9 µM; IC50 (eIF1A without NTT; [6]): 37.9 µM |
| COc1ccc2oc(C(=O)OC(C)C(=O)Nc3sccc3C(N)=O)c(C)c2c1 (stereo not drawn) [1Ai-3044] |  |  |  |  |  |  |  |  |  |  |  | 0.527 | 0.9145 | 0.4548 | 0.4548 | 2086.5 | 949 | 0.455 |  |  | LONG (summary - All), normalized to DMSO ([1]; 10 µM): 0.55 and 1.64 and 1.20 and 0.82 and 1.11; SHORT (summary - All), normalized to DMSO ([1]; 10 µM): 0.72 and 0.67 and 0.70 and 0.63; Long 5'UTR reporter luciferase activity, normalized to DMSO (=1), single replicates ([1]; compound at 10 µM): 0.5511 and 1.639 and 1.204 and 0.8163 and 1.106; average ( long vs short ratio) ([1]; 10 µM): 1.568 |
